Laboratory results reported in article PMC5316407, “In vivo imaging of systemic transport and elimination of xenobiotics and endogenous molecules in mice” (Archives of Toxicology, 2016).
Several values for one entry are separate records, joined by “and”; a condition that tells them apart may be missing. Equal values may be shown once. Entries after “also recorded” stand apart in the source; their conditions may differ.

Tests used:
Type in all cases: in vivo, mouse
[1] = Intravital two-photon imaging of intestinal transport (duodenum, capillaries to lacteal)
Method: (§1) In vivo recordings were acquired using a custom modified inverted LSM MP7 (Zeiss, Jena, Germany) provided with a two-photon Chameleon Ultra II laser with a tuning range from 680 to 1080 nm and a maximum power of approximately 3.5 W at 800 nm. […] Images were acquired with an LD C-Apochromat 40×/1.1 water immersion objective. The temperature of the specimen was controlled with a matt coated incubation chamber (Solent Scientific, Segensworth, UK).
For in vivo imaging, 6- to 10-week-old male mice were initially anaesthetized with an intraperitoneal injection of ketamine (64 mg/kg), xylazine (7.2 mg/kg), acepromazine (1.7 mg/kg) and buprenorphine (0.08 mg/kg). […] For liver preparation, the abdominal skin was removed and a small midline incision below the sternum was made with surgical scissors. Subsequently, the falciform ligament was cautiously cut in order to dissociate the liver. […] The cover slip was put in a custom-made image platform from Plexiglas and fit into the stage of the microscope. The exposed liver was then covered with saline-soaked gauze. The temperature control of the incubation chamber was set at 36 °C. The quality of mouse preparation was verified by checking the breathing rate of the mouse and by the regular blood flow in the observed region. For the preparation of the kidney, the mouse was placed on its right side and a small incision made in the left flank region. The convex side of the left kidney was exposed via gentle pressure on the abdominal wall. In order to avoid dryness, the exposed kidney was covered with saline-moistened gauze during imaging. For intestine imaging, an incision was made on the right side of the abdominal wall. The intestine was gently pulled out using a moistened cotton-tipped applicator. To reduce peristalsis, the intestine was incubated in a 1% atropine sulfate bath for 10 min. […]
Recorded videos were quantified with the Zen software (Zeiss). Fluorescence intensity was quantified in defined regions of interest. […]

[2] = Intravital two-photon imaging of hepatic transport after tail vein injection; details: for Half-life: liver
Method: as §1
(§2) For in vivo imaging, 6- to 10-week-old male mice were initially anaesthetized with an intraperitoneal injection of ketamine (64 mg/kg), xylazine (7.2 mg/kg), acepromazine (1.7 mg/kg) and buprenorphine (0.08 mg/kg). […] For liver preparation, the abdominal skin was removed and a small midline incision below the sternum was made with surgical scissors. Subsequently, the falciform ligament was cautiously cut in order to dissociate the liver. […] The cover slip was put in a custom-made image platform from Plexiglas and fit into the stage of the microscope. The exposed liver was then covered with saline-soaked gauze. The temperature control of the incubation chamber was set at 36 °C. The quality of mouse preparation was verified by checking the breathing rate of the mouse and by the regular blood flow in the observed region. For the preparation of the kidney, the mouse was placed on its right side and a small incision made in the left flank region. The convex side of the left kidney was exposed via gentle pressure on the abdominal wall. In order to avoid dryness, the exposed kidney was covered with saline-moistened gauze during imaging. For intestine imaging, an incision was made on the right side of the abdominal wall. The intestine was gently pulled out using a moistened cotton-tipped applicator. To reduce peristalsis, the intestine was incubated in a 1% atropine sulfate bath for 10 min. Subsequently, the intestine was placed in a glass bottom microwell dishes (MatTek corporation, MA, USA) containing 0.5% atropine sulfate bath during the entire recording period. In case of recordings exceeding 1 h, the mice were kept on maintenance anesthesia via a respiratory mask using an evaporator (IAS3801, FMI GmbH, Seeheim-Jugenheim, Germany) with 1–2% isoflurane and a subcutaneous injection of 0.5 ml saline was given.
(§3) Fluorescent markers or fluorescently labeled antibodies were injected via the tail vein before surgery or during recording via lateral tail vein catheters (SAI-infusion, IL, USA). […] All injected antibodies including anti-mouse CD11b, anti-mouse F4/80, anti-mouse NK1.1 and anti-mouse Ly6G (eBioscience, CA, USA) were phycoerythrin conjugated and administered in 100 µl PBS.
(§4) Recorded videos were quantified with the Zen software (Zeiss). Fluorescence intensity was quantified in defined regions of interest.
(§5) Pharmacokinetic analyses were performed with the MoBi® Toolbox for MATLAB (version 6.0.3; Bayer Technology Services GmbH, Leverkusen, Germany). PK-Sim® and MoBi® are freely available for non-commercial academic use.

[3] = Intravital two-photon imaging of glomerular filtration and tubular transport in the kidney; details: for Tmax: individual renal tubule; for Half-life: kidney
Method: as §1, §2, §3, §4, §5

Transport from intestinal capillaries into intestinal crypt cells and secretion into the intestinal lumen ([1]; after intravenous injection): No transport
Half-life ([1]; intestine, blood vessels): 1.45 min
Time to maximum homogenous signal in the cytosol of the hepatocytes ([2]; after intravenous injection of 2.5 mg/kg): ~5 min
Enrichment in the LSEC/space of Dissé ([2]; after tail vein injection): transient enrichment
Half-life ([2]; LSEC/Dissé space): 13.46 min
Half-life ([2]; hepatocytes, nd^a = not detectable due to transportation in vesicles): 34.17 min
Half-life ([2]; sinusoids, fluorescence intensity after tail vein injection (CLF 2.5 mg/kg, dextran 30 mg/kg)): 1.9 min and 1.89 min
Appearance in the liver sinusoids after tail vein injection ([2]; time after tail vein injection): approximately 15 s
Tmax ([3]; Fig. 7, Tubule: 1): 0.38 min
Tmax ([3]; Fig. 7, Tubule: 2): 0.38 min
Tmax ([3]; Fig. 7, Tubule: 3): 0.40 min
Tmax ([3]; Fig. 7, Tubule: 4): 0.75 min
Tmax ([3]; Fig. 7, Tubule: 5): 0.45 min
Tmax ([3]; Fig. 7, Tubule: 6): 0.35 min
Tmax ([3]; Fig. 7, Tubule: 7): 3.22 min
Tmax ([3]; Fig. 7, Tubule: 8): 2.82 min
Tmax ([3]; Fig. 7, Tubule: 9): 3.34 min
Tmax ([3]; Fig. 7, Tubule: 10): 3.34 min
Tmax ([3]; Fig. 7, Tubule: 11): 0.40 min
Tmax ([3]; Fig. 7, Tubule: 12): 0.50 min
Tmax ([3]; Fig. 7, Tubule: 13): 3.24 min
Tmax ([3]; Fig. 7, Tubule: 14): 0.37 min
Tmax ([3]; Fig. 7, Tubule: 15): 3.19 min
Half-life ([3]; Bowman's space): 2.19 min
Half-life ([3]; glomerular capillaries): 2.3 min and 2.33 min
Half-life ([3]; proximal tubule): 4.88 min
Time to maximum (T max) fluorescence, distal tubules ([3]; tubular lumina, range over imaged tubules): 2.82 to 3.34 min
SMILES: CC(CCC(=O)NC(CCCCNC(=S)Nc1ccc(-c2c3ccc(=O)cc-3oc3cc(O)ccc23)c(C(=O)O)c1)C(=O)O)C1CCC2C3C(O)CC4CC(O)CCC4(C)C3CC(O)C12C (stereo not shown) [CLF, cholyl-lysyl-fluorescein]
Transfer from intestinal blood capillaries into lymphatic vessels (lacteals), blood-lacteal barrier ([1]; after intravenous injection): found in traces in the lymphatic vessels; also recorded: virtually impermeable
